Values belong to the molecule of their own block, whether it stands above or below them. Activity calls are given as the source filed them. The calls are words filed in the database; no cut-off is given here.
Columns and labels:
RAW264.7 [1] = experiment: Cytotoxicity against mouse RAW264.7 cells assessed as reduction in cell viability at 50 to 100 uM after 48 hrs by WST-1 assay; assay type: cell-based; conditions: raw264.7, 48 h
RAW264.7 [2] = experiment: Inhibition of NF-kappaB nuclear localization in LPS-induced mouse RAW264.7 cells at 50 to 100 uM pretreated for 6 hrs followed by LPS stimulation measured after 2 hrs by DAPI/FITC staining based laser scanning confocal microscopy; assay type: cell-based
RAW264.7 [3] = experiment: Effect on beta-actin expression level in LPS-induced mouse RAW264.7 cells at 50 uM pretreated for 6 hrs followed by LPS stimulation measured after 2 hrs by Western blot analysis (reference value: 0.99); assay type: ADME, cell-based; conditions: raw264.7, 2 h
RAW264.7 [4] = experiment: Inhibition of NF-kappaB in mouse RAW264.7 cells assessed as LPS-induced nuclear NF-kappaB level at 75 uM pretreated for 6 hrs followed by LPS stimulation measured after 2 hrs by Western blot analysis (reference value: 6.77); assay type: cell-based
RAW264.7 [5] = experiment: Effect on LPS-induced I-kappaB level in mouse RAW264.7 cells at 50 uM pretreated for 6 hrs followed by LPS stimulation measured after 2 hrs by Western blot analysis (reference value: 0.44); assay type: cell-based
Mus musculus [6] = species on record: Mus musculus; experiment: Effect on LPS-induced I-kappaB phosphorylation at 50 uM pretreated for 6 hrs followed by LPS stimulation measured after 2 hrs by Western blot analysis (reference value: 2.22)
RAW264.7 [7] = experiment: Inhibition of NF-kappaB in mouse RAW264.7 cells assessed as LPS-induced cytosolic NF-kappaB level at 50 uM pretreated for 6 hrs followed by LPS stimulation measured after 2 hrs by Western blot analysis (reference value: 0.13); assay type: cell-based
RAW264.7 [8] = experiment: Inhibition of NF-kappaB in mouse RAW264.7 cells assessed as LPS-induced iNOS expression level at 50 uM pretreated for 6 hrs followed by LPS stimulation measured after 24 hrs by Western blot analysis (reference value: 5.69); assay type: cell-based
RAW264.7 [9] = experiment: Inhibition of NF-kappaB in mouse RAW264.7 cells assessed as LPS-induced iNOS expression level at 100 uM pretreated for 6 hrs followed by LPS stimulation measured after 24 hrs by Western blot analysis (reference value: 5.69); assay type: cell-based
RAW264.7 [10] = experiment: Inhibition of NF-kappaB in mouse RAW264.7 cells assessed as reduction in LPS-induced COX-2 mRNA level at 50 to 100 uM by qRT-PCR analysis; assay type: cell-based
RAW264.7 [11] = experiment: Inhibition of NF-kappaB in mouse RAW264.7 cells assessed as LPS-induced cytosolic NF-kappaB level at 75 uM pretreated for 6 hrs followed by LPS stimulation measured after 2 hrs by Western blot analysis (reference value: 0.13); assay type: cell-based
RAW264.7 [12] = experiment: Inhibition of NF-kappaB in mouse RAW264.7 cells assessed as reduction in LPS-induced iNOS mRNA level at 50 to 100 uM by qRT-PCR analysis; assay type: cell-based
RAW264.7 [13] = experiment: Inhibition of NF-kappaB in mouse RAW264.7 cells assessed as reduction in LPS-induced iNOS expression level pretreated for 6 hrs followed by LPS stimulation measured after 24 hrs by Western blot analysis; assay type: cell-based
RAW264.7 [14] = experiment: Antiinflammatory activity against mouse RAW264.7 cells assessed as inhibition of LPS-induced intracellular ROS production at 50 to 100 uM pretreated for 12 hrs followed by LPS stimulation measured after 24 hrs by DCF-DA probe based flow cytometry; assay type: functional, cell-based
RAW264.7 [15] = experiment: Inhibition of NF-kappaB in mouse RAW264.7 cells assessed as reduction in LPS-induced IL-6 mRNA level at 50 to 100 uM by qRT-PCR analysis; assay type: cell-based
RAW264.7 [16] = experiment: Effect on LPS-induced I-kappaB level in mouse RAW264.7 cells at 75 uM pretreated for 6 hrs followed by LPS stimulation measured after 2 hrs by Western blot analysis (reference value: 0.44); assay type: cell-based
RAW264.7 [17] = experiment: Antiinflammatory activity against mouse RAW264.7 cells assessed as inhibition of LPS-induced TNFalpha production at 100 uM pretreated for 6 hrs followed by LPS stimulation measured after 24 hrs by ELISA; assay type: functional, cell-based
RAW264.7 [18] = experiment: Inhibition of NF-kappaB in mouse RAW264.7 cells assessed as reduction in LPS-induced TNFalpha mRNA level at 50 to 100 uM by qRT-PCR analysis; assay type: cell-based
RAW264.7 [19] = experiment: Inhibition of LPS-induced I-kappaB phosphorylation in mouse RAW264.7 cells pretreated for 6 hrs followed by LPS stimulation measured after 2 hrs by Western blot analysis; assay type: cell-based
RAW264.7 [20] = experiment: Antiinflammatory activity against mouse RAW264.7 cells assessed as inhibition of LPS-induced IL-1beta production at 50 to 100 uM pretreated for 6 hrs followed by LPS stimulation measured after 24 hrs by ELISA; assay type: functional, cell-based
RAW264.7 [21] = experiment: Effect on tubulin expression level in LPS-induced mouse RAW264.7 cells at 75 uM pretreated for 6 hrs followed by LPS stimulation measured after 2 hrs by Western blot analysis (reference value: 1.02); assay type: ADME, cell-based; conditions: raw264.7, 2 h
Mus musculus [22] = species on record: Mus musculus; experiment: Effect on LPS-induced I-kappaB phosphorylation at 75 uM pretreated for 6 hrs followed by LPS stimulation measured after 2 hrs by Western blot analysis (reference value: 2.22)
RAW264.7 [23] = experiment: Inhibition of NF-kappaB in mouse RAW264.7 cells assessed as LPS-induced iNOS expression level at 70 uM pretreated for 6 hrs followed by LPS stimulation measured after 24 hrs by Western blot analysis (reference value: 5.69); assay type: cell-based
RAW264.7 [24] = experiment: Effect on beta-actin expression level in LPS-induced mouse RAW264.7 cells at 50 uM pretreated for 6 hrs followed by LPS stimulation measured after 24 hrs by Western blot analysis (reference value: 0.95); assay type: ADME, cell-based; conditions: raw264.7, 24 h
RAW264.7 [25] = experiment: Effect on beta-actin expression level in LPS-induced mouse RAW264.7 cells at 100 uM pretreated for 6 hrs followed by LPS stimulation measured after 24 hrs by Western blot analysis (reference value: 0.95); assay type: ADME, cell-based; conditions: raw264.7, 24 h
RAW264.7 [26] = experiment: Inhibition of NF-kappaB in mouse RAW264.7 cells assessed as LPS-induced COX-2 expression level at 75 uM pretreated for 6 hrs followed by LPS stimulation measured after 24 hrs by Western blot analysis (reference value: 2.02); assay type: cell-based
RAW264.7 [27] = experiment: Inhibition of NF-kappaB in mouse RAW264.7 cells assessed as LPS-induced COX-2 expression level at 100 uM pretreated for 6 hrs followed by LPS stimulation measured after 24 hrs by Western blot analysis (reference value: 2.02); assay type: cell-based
RAW264.7 [28] = experiment: Inhibition of NF-kappaB in mouse RAW264.7 cells assessed as LPS-induced COX-2 expression level at 50 uM pretreated for 6 hrs followed by LPS stimulation measured after 24 hrs by Western blot analysis (reference value: 2.02); assay type: cell-based
RAW264.7 [29] = experiment: Effect on beta-actin expression level in LPS-induced mouse RAW264.7 cells at 75 uM pretreated for 6 hrs followed by LPS stimulation measured after 24 hrs by Western blot analysis (reference value: 0.95); assay type: ADME, cell-based; conditions: raw264.7, 24 h
Mus musculus [30] = species on record: Mus musculus; experiment: Effect on LPS-induced I-kappaB phosphorylation at 100 uM pretreated for 6 hrs followed by LPS stimulation measured after 2 hrs by Western blot analysis (reference value: 2.22)
RAW264.7 [31] = experiment: Effect on beta-actin expression level in LPS-induced mouse RAW264.7 cells at 100 uM pretreated for 6 hrs followed by LPS stimulation measured after 2 hrs by Western blot analysis (reference value: 0.99); assay type: ADME, cell-based; conditions: raw264.7, 2 h
RAW264.7 [32] = experiment: Inhibition of NF-kappaB in mouse RAW264.7 cells assessed as LPS-induced nuclear NF-kappaB level at 100 uM pretreated for 6 hrs followed by LPS stimulation measured after 2 hrs by Western blot analysis (reference value: 6.77); assay type: cell-based
RAW264.7 [33] = experiment: Effect on tubulin expression level in LPS-induced mouse RAW264.7 cells at 50 uM pretreated for 6 hrs followed by LPS stimulation measured after 2 hrs by Western blot analysis (reference value: 1.02); assay type: ADME, cell-based; conditions: raw264.7, 2 h
RAW264.7 [34] = experiment: Effect on tubulin expression level in LPS-induced mouse RAW264.7 cells at 100 uM pretreated for 6 hrs followed by LPS stimulation measured after 2 hrs by Western blot analysis (reference value: 1.02); assay type: ADME, cell-based; conditions: raw264.7, 2 h
RAW264.7 [35] = experiment: Effect on LPS-induced I-kappaB level in mouse RAW264.7 cells at 100 uM pretreated for 6 hrs followed by LPS stimulation measured after 2 hrs by Western blot analysis (reference value: 0.44); assay type: cell-based
RAW264.7 [36] = experiment: Inhibition of NF-kappaB in mouse RAW264.7 cells assessed as LPS-induced cytosolic NF-kappaB level at 100 uM pretreated for 6 hrs followed by LPS stimulation measured after 2 hrs by Western blot analysis (reference value: 0.13); assay type: cell-based
RAW264.7 [37] = experiment: Antiinflammatory activity against mouse RAW264.7 cells assessed as inhibition of LPS-induced IL-6 production at 50 to 100 uM pretreated for 6 hrs followed by LPS stimulation measured after 24 hrs by ELISA; assay type: functional, cell-based
RAW264.7 [38] = experiment: Effect on beta-actin expression level in LPS-induced mouse RAW264.7 cells at 75 uM pretreated for 6 hrs followed by LPS stimulation measured after 2 hrs by Western blot analysis (reference value: 0.99); assay type: ADME, cell-based; conditions: raw264.7, 2 h
RAW264.7 [39] = experiment: Antiinflammatory activity against mouse RAW264.7 cells assessed as inhibition of LPS-induced nitrite production at 100 uM pretreated for 6 hrs followed by LPS stimulation measured after 24 hrs by […]; assay type: functional, cell-based
RAW264.7 [40] = experiment: Inhibition of NF-kappaB in mouse RAW264.7 cells assessed as LPS-induced nuclear NF-kappaB level at 50 uM pretreated for 6 hrs followed by LPS stimulation measured after 2 hrs by Western blot analysis (reference value: 6.77); assay type: cell-based
RAW264.7 [41] = experiment: Inhibition of NF-kappaB in mouse RAW264.7 cells assessed as reduction in LPS-induced IL-1beta mRNA level at 50 to 100 uM by qRT-PCR analysis; assay type: cell-based
RAW264.7 [42] = experiment: Antiinflammatory activity against mouse RAW264.7 cells assessed as inhibition of LPS-induced nitrite production at 20 uM pretreated for 6 hrs followed by LPS stimulation measured after 24 hrs by […]; assay type: functional, cell-based
RAW264.7 [43] = experiment: Antiinflammatory activity against mouse RAW264.7 cells assessed as inhibition of LPS-induced IL-6 production at 20 uM pretreated for 6 hrs followed by LPS stimulation measured after 24 hrs by ELISA; assay type: functional, cell-based
RAW264.7 [44] = experiment: Antiinflammatory activity against mouse RAW264.7 cells assessed as inhibition of LPS-induced IL-1beta production at 20 uM pretreated for 6 hrs followed by LPS stimulation measured after 24 hrs by ELISA; assay type: functional, cell-based
RAW264.7 [45] = experiment: Antiinflammatory activity against mouse RAW264.7 cells assessed as inhibition of LPS-induced TNFalpha production at 20 uM pretreated for 6 hrs followed by LPS stimulation measured after 24 hrs by ELISA; assay type: functional, cell-based

fold change (FC) (RAW264.7 [3]): 0.94
fold change (FC) (Mus musculus [6]): 1.86
fold change (FC) (RAW264.7 [21]): 0.96
fold change (FC) (Mus musculus [22]): 1.11
fold change (FC) (RAW264.7 [24]): 0.95
fold change (FC) (RAW264.7 [25]): 0.96
fold change (FC) (RAW264.7 [29]): 1
fold change (FC) (Mus musculus [30]): 1.05
fold change (FC) (RAW264.7 [31]): 1
fold change (FC) (RAW264.7 [33]): 0.93
fold change (FC) (RAW264.7 [34]): 1.01
fold change (FC) (RAW264.7 [38]): 0.96
SMILES: COc1cc2ccc(=O)[nH]c2cc1O
Activity (RAW264.7 [1]): Non-Toxic
inhibition (RAW264.7 [2]): Active
fold change (FC) (RAW264.7 [4]): 3.89
fold change (FC) (RAW264.7 [5]): 0.64
fold change (FC) (RAW264.7 [7]): 0.3
fold change (FC) (RAW264.7 [8]): 3.4
fold change (FC) (RAW264.7 [9]): 1.04
inhibition (RAW264.7 [10]): Active
fold change (FC) (RAW264.7 [11]): 0.91
inhibition (RAW264.7 [12]): Active
inhibition (RAW264.7 [13]): Dose-dependent effect
inhibition (RAW264.7 [14]): Active
inhibition (RAW264.7 [15]): Active
fold change (FC) (RAW264.7 [16]): 0.85
inhibition (RAW264.7 [17]): Active
inhibition (RAW264.7 [18]): Active
inhibition (RAW264.7 [19]): Dose-dependent effect
inhibition (RAW264.7 [20]): Active
fold change (FC) (RAW264.7 [23]): 1.98
fold change (FC) (RAW264.7 [26]): 1.29
fold change (FC) (RAW264.7 [27]): 1.02
fold change (FC) (RAW264.7 [28]): 1.72
fold change (FC) (RAW264.7 [32]): 1.56
fold change (FC) (RAW264.7 [35]): 0.99
fold change (FC) (RAW264.7 [36]): 0.97
inhibition (RAW264.7 [37]): Active
inhibition (RAW264.7 [39]): Active
fold change (FC) (RAW264.7 [40]): 5.25
inhibition (RAW264.7 [41]): Active

SMILES: C[C@@H]1C[C@H]2[C@@H]3CCC4=CC(=O)C=C[C@]4(C)[C@@]3(F)[C@@H](O)C[C@]2(C)[C@@]1(O)C(=O)CO
inhibition (RAW264.7 [42]): Active
inhibition (RAW264.7 [43]): Active
inhibition (RAW264.7 [44]): Active
inhibition (RAW264.7 [45]): Active

Source: ChEMBL document CHEMBL4196211, “In Vitro Mechanistic Study of the Anti-inflammatory Activity of a Quinoline Isolated from Spondias pinnata Bark” (J Nat Prod, 2018)
